This is an account of results in ChEMBL document CHEMBL2417489, “A structure-activity relationship study of 1,2,4-triazolo[1,5-a][1,3,5]triazin-5,7-dione and its 5-thioxo analogues on anti-thymidine phosphorylase and associated anti-angiogenic activities” (Eur J Med Chem, 2013).

Experiment [1] deals with MDA-MB-231. The settings on record: Homo sapiens, 50 to 100 uM.
Description: Antiangiogenic activity in human MDA-MB-231 cells assessed as inhibition of PMA-induced MMP-9 expression at 50 to 100 uM after 24 hrs by densitometric analysis relative to vehicle-treated control
Experiment [2] concerns MDA-MB-231. The settings on record: Homo sapiens, 200 uM.
Description: Antiangiogenic activity in human MDA-MB-231 cells assessed as inhibition of PMA-induced MMP-9 expression at 200 uM after 24 hrs by gelatine zymography relative to vehicle-treated control
The test system of experiment [3] is MDA-MB-231. The settings on record: Homo sapiens, 25 to 200 uM.
Description: Antiangiogenic activity in human MDA-MB-231 cells assessed as inhibition of VEGF protein expression at 25 to 200 uM after 24 hrs by ELISA relative to vehicle-treated control
For experiment [4], the system named is MDA-MB-231. The settings on record: Homo sapiens, 100 to 200 uM.
Description: Antiangiogenic activity in human MDA-MB-231 cells assessed as inhibition of PMA-induced MMP-9 expression at 100 to 200 uM after 24 hrs by densitometric analysis relative to vehicle-treated control
The target of the next experiment is T1, Thymidine phosphorylase (Homo sapiens, UniProt P19971).
T1 sequence (P19971 whole entry): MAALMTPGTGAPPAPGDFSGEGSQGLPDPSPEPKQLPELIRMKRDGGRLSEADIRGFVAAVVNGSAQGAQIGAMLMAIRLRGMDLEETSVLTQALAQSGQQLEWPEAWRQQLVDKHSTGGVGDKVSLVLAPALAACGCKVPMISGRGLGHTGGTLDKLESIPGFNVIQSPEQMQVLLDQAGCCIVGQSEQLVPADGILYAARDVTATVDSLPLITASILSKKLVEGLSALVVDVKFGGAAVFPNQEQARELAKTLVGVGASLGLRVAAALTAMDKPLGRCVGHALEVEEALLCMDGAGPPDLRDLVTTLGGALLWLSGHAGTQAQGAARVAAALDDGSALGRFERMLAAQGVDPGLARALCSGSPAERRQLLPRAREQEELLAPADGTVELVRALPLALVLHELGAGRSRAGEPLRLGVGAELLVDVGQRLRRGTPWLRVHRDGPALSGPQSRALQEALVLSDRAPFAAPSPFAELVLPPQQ
The experiment in a line: Inhibition of human recombinant thymidine phosphorylase expressed in Escherichia coli using thymidine as substrate after 4 to 20 mins by spectrophotometry.

pIC50: −log10 of the molar value. Calls of active or inactive are those of the source. No cut-off for these calls is given here.

Consider `O=c1[nH]c(=S)[nH]c2nc(Cc3ccc(Cl)c(Cl)c3)nn12`, for which the inhibition entry with MDA-MB-231 [1] is “inactive”. Besides, the inhibition result in the experiment on MDA-MB-231 [2] and in the experiment on MDA-MB-231 [3] was “Active” each time.

In the case of `O=c1[nH]c(=S)[nH]c2nc(-c3ccc(Cl)c(Cl)c3)nn12`, the inhibition entry with MDA-MB-231 [4], with MDA-MB-231 [2] and with MDA-MB-231 [3] was “Active” in each case.

`Cc1cc(-c2nc3[nH]c(=S)[nH]c(=O)n3n2)ccc1Br`: the inhibition result with MDA-MB-231 [4], with MDA-MB-231 [2] and in the experiment with MDA-MB-231 [3] was “Active” in each case.

As a reminder, the pIC50 is the negative decadic logarithm of the IC50, by convention in mol/L. Regarding `O=c1[nH]c(=O)n2nc(Cc3ccccc3)nc2[nH]1`, the pIC50 at Thymidine phosphorylase was < 4.00.

In the case of `O=c1[nH]c(=O)n2nc(-c3ccccc3)nc2[nH]1`, the pIC50 on Thymidine phosphorylase is < 4.00.
